Results as given in publication PMC4961704, “Synthesis and Biological Evaluation of Thiophene-Based Cannabinoid Receptor Type 2 Radiotracers for PET Imaging” (Frontiers in Neuroscience, 2016).
Entries after “also recorded” stand apart in the source; their conditions may differ. Like-named read-outs stand apart in the source and are kept apart here.

How the values were obtained:
hCB2 [1] = biological target: T1, hCB2 (Homo sapiens, UniProt P34972); experiment: Competitive in vitro binding assay with [3H]CP-55,940, membranes of CHO-K1 cells stably transfected with hCB2; conditions: displacement of [3H]CP-55,940 (1.4 nM), 30°C, 90 min; three independent experiments in triplicate; Cheng-Prusoff
T1 construct: purchased PerkinElmer; host or cells: CHO-K1 cells stably transfected
Description: (§2) A dilution series ranging from 1 pM to 1 mM in assay buffer (50 mM TRIS, 1 mM EDTA, 3 mM MgCl2 and 0.05% bovine serum albumin, pH adjusted to 7.4) was prepared for each ligand to be tested. […] The samples were incubated at 30°C for 90 min and subsequently diluted with ice cold assay buffer (3 mL) in order to be vacuum-filtered through Whatman GF/C filters (pre-treated with aq. polyethylenimine, 0.05%). Each sample was washed twice with ice cold assay buffer (3 mL) and filtered again. After addition of scintillation cocktail (Ultima Gold, Perkin Elmer), radioactivity was measured using a Beckman LS 6500 Liquid Scintillation Counter. IC50 mean values were calculated after performing three independent experiments, each as triplicate.
(§3) Binding affinity studies were performed using membranes stably transfected with human CB1 and CB2, respectively.

hCB1 [2] = biological target: T2, hCB1 (Homo sapiens, UniProt P21554); experiment: Competitive in vitro binding assay with [3H]CP-55,940, membranes of CHO-K1 cells stably transfected with hCB1; conditions: displacement of [3H]CP-55,940 (1.4 nM), 30°C, 90 min; three independent experiments in triplicate; Cheng-Prusoff
T2 construct: purchased PerkinElmer; host or cells: CHO-K1 cells stably transfected
Description: as §2, §3

hCB2 [3] = biological target: T1, hCB2; design: method as in earlier work; conditions: known ligands, entry 1–3; ref Showalter et al., 1996; Lan et al., 1999; Valenzano et al., 2005; cited from earlier work
hCB1 [4] = biological target: T2, hCB1; design: method as in earlier work; conditions: known ligands, entry 1–3; ref Showalter et al., 1996; Lan et al., 1999; Valenzano et al., 2005; cited from earlier work
[5] = tested on: CB2-positive mouse spleen tissue; experiment: In vitro autoradiography on mouse spleen tissue sections; type: binding, CD1 mouse; conditions: 5 nM radiotracer; baseline vs blockade with 10 μM GW405833; n = 2
Description: (§1) Autoradiography was performed on rat/mouse spleen tissue. Sections were prepared in 20 μm thickness using a cryostat (Cryo-Star NX 50; Thermo Scientific). The tissue slices were adsorbed to SuperFrost Plus (Menzel) slides and stored at −20°C until use. After thawing on ice for 10 min, sections were pre-incubated in the assay buffer containing 50 mM TRIS, 5 mM MgCl2, 2.5 mM EDTA, and 0.5% BSA (pH 7.4). […] In order to test for specificity toward CB2, a solution containing both radiotracer and an excess of CB2 specific partial agonist GW405833 (10 μM) was prepared and added to the tissue. The tissue slices were washed twice with assay buffer (each 2 min) and twice with distilled water (each 5 s) on ice, air dried, and exposed to a phosphor imager plate for a period of 25 min. The plate was scanned using a BAS5000 reader (Fujifilm, Dielsdorf, CH).

[6] = tested on: CB2-positive rat spleen tissue; experiment: In vitro autoradiography on rat spleen tissue sections; type: binding, Wistar rat; conditions: 5 nM radiotracer; baseline vs blockade with 10 μM GW405833; n = 2
Description: as §1

CB2-positive spleen = experiment: In vivo PET/CT of the spleen region after tail-vein injection; design: species or system Wistar rat
Description: Under baseline conditions, radiotracer accumulation was recorded in the region of the spleen in dynamic PET acquisition mode over 60 min (n = 2). During this whole time period rats were kept under anesthesia, body temperature and respiratory rate were constantly monitored. Under blockade conditions, 1.5 mg/kg GW405833 was injected shortly before radiotracer application in two of the four rats. Acquired PET data were reconstructed as user-defined time frames with a voxel size of 0.3875 × 0.3875 × 0.775 mm. For anatomical orientation, CT scans were acquired after each PET scan. Images were evaluated with PMOD v3.4 (PMOD Technologies Inc., Zurich, CH) software. Regions of interest (spleen, liver, and muscle) were drawn manually using the PMOD fusion tool. Time activity curves (TACs) for spleen, liver and muscle were expressed as standardized uptake values (SUV) which are the decay-corrected radioactivity per cm^3 divided by the injected radioactivity dose per gram of body weight.

T1 sequence (P34972 whole entry): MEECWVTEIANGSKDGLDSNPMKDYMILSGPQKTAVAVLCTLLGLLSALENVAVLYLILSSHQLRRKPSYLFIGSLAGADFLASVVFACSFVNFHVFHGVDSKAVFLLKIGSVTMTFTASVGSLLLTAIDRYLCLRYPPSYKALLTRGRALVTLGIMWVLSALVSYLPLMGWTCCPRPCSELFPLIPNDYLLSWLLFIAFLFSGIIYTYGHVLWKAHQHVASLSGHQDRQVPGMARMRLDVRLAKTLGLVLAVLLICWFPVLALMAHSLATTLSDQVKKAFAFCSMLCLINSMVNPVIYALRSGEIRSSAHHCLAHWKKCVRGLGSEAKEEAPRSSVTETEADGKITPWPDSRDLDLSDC
T2 sequence (P21554 whole entry): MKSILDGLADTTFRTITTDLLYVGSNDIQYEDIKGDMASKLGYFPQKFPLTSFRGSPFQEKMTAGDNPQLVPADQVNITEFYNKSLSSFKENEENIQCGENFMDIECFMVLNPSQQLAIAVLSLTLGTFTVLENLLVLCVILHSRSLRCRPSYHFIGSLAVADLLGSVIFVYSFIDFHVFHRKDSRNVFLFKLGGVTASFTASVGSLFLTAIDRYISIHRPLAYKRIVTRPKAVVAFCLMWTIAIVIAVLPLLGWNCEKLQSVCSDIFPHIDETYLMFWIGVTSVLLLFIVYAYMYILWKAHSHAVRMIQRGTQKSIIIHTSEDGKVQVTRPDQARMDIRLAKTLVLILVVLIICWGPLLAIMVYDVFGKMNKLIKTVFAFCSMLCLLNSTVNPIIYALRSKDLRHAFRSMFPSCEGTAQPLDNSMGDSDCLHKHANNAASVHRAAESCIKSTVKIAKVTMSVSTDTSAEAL

For `CCCc1c(C)sc(NC(=O)C23CC4CC(CC(C4)C2)C3)c1C(=O)OC` [AAT-778, Methyl 2-(adamantane-1-carboxamido)-5-methyl-4-propylthiophene-3-carboxylate], the Ki (hCB2 [1]) was 4.3 ± 0.7 nM and the Ki (hCB1 [2]) was 1100 ± 100 nM.
For `COc1ccc2c(c1)c(CCN1CCOCC1)c(C)n2C(=O)c1cccc(Cl)c1Cl` [GW405833], the Ki (hCB2 [3]) is given as 3.9 ± 1.6 nM and the Ki (hCB1 [4]) is given as 4770 ± 1680 nM.
For `[11CH3]OC(=O)c1c(NC(=O)C23CC4CC(CC(O)(C4)C2)C3)sc2c1CCCC2` [[^11C]AAT-015], the “specificity of binding to mouse spleen tissue (autoradiography)” value [5] was “high unspecific binding”, the “specificity of binding to rat spleen tissue (autoradiography)” value [6] was “high unspecific binding” and the “spleen uptake of radiotracer (PET)” value (CB2-positive spleen; baseline, 10–15 MBq i.v., 0–60 min post injection) was “no accumulation; also recorded: low uptake”. For the same molecule, the “spleen uptake, TACs baseline vs blockade (PET)” value (CB2-positive spleen; blockade with 1.5 mg/kg GW405833 shortly before tracer, 60 min) was “no difference”.
With `CCCc1c(C)sc(NC(=O)C23CC4CC(CC(C4)C2)C3)c1C(=O)O[11CH3]` [[^11C]AAT-778] the “specificity of binding to mouse spleen tissue (autoradiography)” value [5] was “No blocking effect; also recorded: high unspecific binding” and the “specificity of binding to rat spleen tissue (autoradiography)” value [6] was “No blocking effect; also recorded: high unspecific binding”.
